Test results reported in BindingDB's records for doi:10.7270/Q2TX3CTT (Broad Institute, 2010).

Biological target: Glycogen synthase kinase-3 beta (Homo sapiens, UniProt P49841)
Test: GSK3beta kinase inhibitor potency, dose response, biochemical, luminescence, cell-free homogeneous, retest (AID 434954)

Sequence of Glycogen synthase kinase-3 beta (P49841 whole entry): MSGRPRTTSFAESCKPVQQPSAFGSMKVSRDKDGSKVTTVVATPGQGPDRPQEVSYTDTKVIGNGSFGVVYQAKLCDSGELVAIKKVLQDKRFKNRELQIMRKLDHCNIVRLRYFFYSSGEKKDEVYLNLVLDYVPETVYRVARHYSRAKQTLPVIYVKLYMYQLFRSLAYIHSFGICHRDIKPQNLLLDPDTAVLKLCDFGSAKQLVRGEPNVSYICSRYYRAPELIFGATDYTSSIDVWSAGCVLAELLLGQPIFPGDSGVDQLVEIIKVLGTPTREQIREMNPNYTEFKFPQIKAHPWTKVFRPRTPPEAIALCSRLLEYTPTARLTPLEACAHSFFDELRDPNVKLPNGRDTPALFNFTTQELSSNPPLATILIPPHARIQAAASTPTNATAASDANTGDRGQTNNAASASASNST

EC50 [µM] | SMILES
> 300 | CCSc1nc(N)nc(-c2cccs2)c1C#N [2-amino-4-ethylsulfanyl-6-thiophen-2-ylpyrimidine-5-carbonitrile]
> 300 | COC(=O)c1sc(Nc2ccccc2)nc1C [2-anilino-4-methyl-5-thiazolecarboxylic acid methyl ester]
> 300 | Nc1nc(S)c2ncn(C3OC(CO)C(O)C3O)c2n1 (stereo not given) [2-azanyl-9-[5-(hydroxymethyl)-3,4-bis(oxidanyl)oxolan-2-yl]-3H-purine-6-thione]
> 300 | O=C(O)c1cc(N=NCc2ccc(-c3ccc(F)cc3)o2)ccc1Cl [2-chloranyl-5-[2-[[5-(4-fluorophenyl)furan-2-yl]methylidene]hydrazinyl]benzoic acid]
43.9 | NS(=O)(=O)c1cc(C(=O)NNC2=c3ccccc3=NC2=O)ccc1Cl [2-chloro-5-[[(2-oxoindol-3-yl)amino]carbamoyl]benzenesulfonamide]
> 300 | O=C(O)c1cc(-c2ccc(CN=Nc3ccc(Cl)cc3)o2)ccc1Cl [2-chloro-5-{5-[2-(4-chlorophenyl)carbonohydrazonoyl]-2-furyl}benzoic acid]
> 300 | O=C(NCC(c1ccco1)N1CCc2ccccc2C1)c1ccccc1Cl (stereo not given) [2-chloro-N-[2-(3,4-dihydro-1H-isoquinolin-2-yl)-2-(2-furanyl)ethyl]benzamide]
> 300 | COc1ccc2nc(NC(=O)CCNC(=O)c3ccccc3Cl)sc2c1 [2-chloro-N-[3-[(6-methoxy-1,3-benzothiazol-2-yl)amino]-3-oxopropyl]benzamide]
> 300 | NC(=O)c1cccc2c1C(=O)N(C1CCCCC1)C2 [2-cyclohexyl-3-oxoisoindoline-4-carboxamide]
> 300 | O=C(O)c1cc(C2CC2)nc2ccccc12 [2-cyclopropyl-4-quinolinecarboxylic acid]
4.2 | CCc1nc2oc3cc(OC)ccc3c(=O)c2c(=O)n1Cc1ccccc1 [2-ethyl-8-methoxy-3-(phenylmethyl)chromeno[2,3-d]pyrimidine-4,5-dione]
64.2 | CCCCC(CC)C(=O)Nc1ncc([N+](=O)[O-])s1 (stereo not given) [2-ethyl-N-(5-nitro-2-thiazolyl)hexanamide]
> 300 | CCSc1nc(-c2ccccc2)c(C#N)c(=O)[nH]1 [2-ethylsulfanyl-4-oxidanylidene-6-phenyl-1H-pyrimidine-5-carbonitrile]
> 300 | CCSc1nnc(-c2cccs2)o1 [2-ethylsulfanyl-5-thiophen-2-yl-1,3,4-oxadiazole]
> 300 | O=C(OCCCOC(=O)c1ccccc1O)c1ccccc1O [2-hydroxybenzoic acid 3-[(2-hydroxyphenyl)-oxomethoxy]propyl ester]
> 300 | Cc1ccc(-n2c(C)c([N+](=O)[O-])c3ccc(O)cc32)cc1 [2-methyl-1-(4-methylphenyl)-3-nitro-indol-6-ol]
2.14 | Cc1c([N+](=O)[O-])c2ccc(O)cc2n1-c1ccccc1 [2-methyl-3-nitro-1-phenylindol-6-ol]
> 300 | CC1=C(C(=O)N2CCCCC2)C(c2cccs2)C2C(=O)CCCC2=N1 (stereo not given) [2-methyl-3-piperidin-1-ylcarbonyl-4-thiophen-2-yl-4,6,7,8-tetrahydro-1H-quinolin-5-one]
> 300 | Cc1ccnc(NC(=O)c2cccc([N+](=O)[O-])c2C)c1 [2-methyl-N-(4-methylpyridin-2-yl)-3-nitro-benzamide]
> 300 | O=C1CC(O)(C(F)(F)F)Oc2c1ccc1ccccc21 (stereo not given) [2-oxidanyl-2-(trifluoromethyl)-3H-benzo[h]chromen-4-one]
> 300 | c1cncc(CNc2nc(-c3cccnc3)nc3ccccc23)c1 [2-pyridin-3-yl-N-(pyridin-3-ylmethyl)quinazolin-4-amine]
> 300 | O=C1NC(c2cccs2)Nc2sc3c(c21)CCCC3 (stereo not given) [2-thiophen-2-yl-2,3,5,6,7,8-hexahydro-1H-[1]benzothiolo[2,3-d]pyrimidin-4-one]
> 300 | Cc1cc(NC(=O)CSc2ccc3nnc(-c4ccc(F)cc4)n3n2)no1 [2-{[3-(4-fluorophenyl)[1,2,4]triazolo[4,3-b]pyridazin-6-yl]thio}-N-(5-methylisoxazol-3-yl)acetamide]
105 | NC(=O)c1c(NC(=O)CCCn2cnc([N+](=O)[O-])n2)sc2c1CCCC2 [2-{[4-(3-nitro-1H-1,2,4-triazol-1-yl)butanoyl]amino}-4,5,6,7-tetrahydro-1-benzothiophene-3-carboxamide]
4.85 | Clc1ccccc1CSc1nnc(-c2ccncc2)o1 [2-{[(2-chlorophenyl)methyl]sulfanyl}-5-(pyridin-4-yl)-1,3,4-oxadiazole]
> 300 | COC1=CC(=O)CC(C)C12Oc1cc(OC)cc(OC)c1C2=O (stereo not given) [3',4,6-trimethoxy-5'-methyl-spiro[1-benzofuran-2,4'-cyclohex-2-ene]-1',3-dione]
> 300 | CC(C)=CCc1c(O)ccc(C2COc3c(CC=C(C)C)c(O)cc(O)c3C2=O)c1O (stereo not given) [3',8-diprenyldalbergioidin]

EC50 [µM] | SMILES
> 300 | COc1ccc(C(=O)NCC(=O)NN=Cc2ccc(C)o2)cc1OC [3,4-dimethoxy-N-(2-{2-[(5-methyl-2-furyl)methylene]hydrazino}-2-oxoethyl)benzamide]
> 300 | COc1ccc(C(=O)Nc2ccc([N+](=O)[O-])cn2)cc1OC [3,4-dimethoxy-N-(5-nitropyridin-2-yl)benzamide]
> 300 | Cc1ccc2c(C)c(C(=O)Nc3nnc(C)s3)oc2c1 [3,6-dimethyl-N-(5-methyl-1,3,4-thiadiazol-2-yl)-1-benzofuran-2-carboxamide]
9.26 | Cc1ccc(C2c3c(n[nH]c3C)N=C3CC(C)(C)CC(=O)C32)cc1 (stereo not given) [3,7,7-trimethyl-4-(4-methylphenyl)-2,4,6,8-tetrahydro-1H-pyrazolo[3,4-b]quinolin-5-one]
1.36 | Cc1[nH]nc2c1C(c1cccs1)C1C(=O)CC(C)(C)CC1=N2 (stereo not given) [3,7,7-trimethyl-4-thiophen-2-yl-2,4,6,8-tetrahydro-1H-pyrazolo[3,4-b]quinolin-5-one]
> 300 | Cc1ccc2c(c1)NC(c1cccs1)C1C(=O)CC(C)(C)CC1=N2 (stereo not given) [3,9,9-trimethyl-6-thiophen-2-yl-6,8,10,11-tetrahydro-5H-benzo[b][1,4]benzodiazepin-7-one]
> 300 | CC1(C)CC(=O)C=C(Nc2ccc3c(c2)OCCO3)C1 [3-(2,3-dihydro-1,4-benzodioxin-6-ylamino)-5,5-dimethyl-1-cyclohex-2-enone]
> 300 | COc1cccc(C(CC(=O)NCc2ccco2)NS(=O)(=O)c2ccc(C)cc2)c1OC (stereo not given) [3-(2,3-dimethoxyphenyl)-N-(2-furylmethyl)-3-{[(4-methylphenyl)sulfonyl]amino}propanamide]
> 300 | COc1ccc(OC)c(C(=O)c2coc3ccc(OC(C)=O)cc23)c1 [3-(2,5-dimethoxybenzoyl)-1-benzofuran-5-yl acetate]
9.29 | N#CCCSc1nc(N2CCOCC2)c2c(c1C#N)CCCC2 [3-(2-cyanoethylthio)-1-(4-morpholinyl)-5,6,7,8-tetrahydroisoquinoline-4-carbonitrile]
> 300 | Cc1ccc(NC2=CC(=O)CC(C)(C)C2)cc1C [3-(3,4-dimethylanilino)-5,5-dimethyl-1-cyclohex-2-enone]
> 300 | Cc1coc2cc3oc(=O)c(CCC(=O)NCCCN4CCCC4=O)c(C)c3cc12 [3-(3,5-dimethyl-7-oxo-6-furo[3,2-g][1]benzopyranyl)-N-[3-(2-oxo-1-pyrrolidinyl)propyl]propanamide]
> 300 | CC1CN(C(=O)CCc2cc(C(C)(C)C)c(O)c(C(C)(C)C)c2)CC(C)O1 (stereo not given) [3-(3,5-ditert-butyl-4-hydroxyphenyl)-1-(2,6-dimethyl-4-morpholinyl)-1-propanone]
> 300 | Nn1c(SCc2cccc(Br)c2)nnc1-c1ccncc1 [3-(3-Bromo-benzylsulfanyl)-5-pyridin-4-yl-[1,2,4]triazol-4-ylamine]
> 300 | Cc1c(Cl)cccc1NC(=S)N(C)CCC#N [3-(3-chloro-2-methylphenyl)-1-(2-cyanoethyl)-1-methylthiourea]
24 | Cn1nc(-c2ccc(Cl)cc2)nc2c(=O)n(C)c(=O)nc1-2 [3-(4-Chloro-phenyl)-1,6-dimethyl-1H-pyrimido[5,4-e][1,2,4]triazine-5,7-dione]
> 300 | O=C(CCS(=O)(=O)c1ccc(Br)cc1)Nc1ccc(Cl)cc1F [3-(4-bromophenyl)sulfonyl-N-(4-chloranyl-2-fluoranyl-phenyl)propanamide]
> 300 | O=Cc1cn(-c2ccccc2)nc1-c1ccc(F)cc1 [3-(4-fluorophenyl)-1-phenyl-1H-pyrazole-4-carbaldehyde]
> 300 | COc1ccc(CNCCC(c2ccc(F)cc2)c2ccc(OC)cc2)cc1 (stereo not given) [3-(4-fluorophenyl)-3-(4-methoxyphenyl)-N-[(4-methoxyphenyl)methyl]propan-1-amine]
> 300 | O=Cc1cn(CCC(=O)O)nc1-c1cccc2ccccc12 [3-(4-formyl-3-naphthalen-1-ylpyrazol-1-yl)propanoic acid]
> 300 | COc1ccc(-c2nn(-c3ccccc3)cc2C#N)cc1 [3-(4-methoxyphenyl)-1-phenyl-4-pyrazolecarbonitrile]
0.432 | COc1ccc(-c2nn(-c3ccccc3)cc2CN=O)cc1 [3-(4-methoxyphenyl)-1-phenyl-4-pyrazolecarboxaldehyde oxime]
> 300 | COc1ccc(-c2nn(-c3ccccc3)cc2N)cc1 [3-(4-methoxyphenyl)-1-phenylpyrazol-4-amine]
> 300 | COc1ccc(-c2noc(CSc3nnc(-c4ccccc4)n3C)n2)cc1 [3-(4-methoxyphenyl)-5-[(4-methyl-5-phenyl-1,2,4-triazol-3-yl)sulfanylmethyl]-1,2,4-oxadiazole]
31.7 | COc1ccc(-c2nnc3ccc(SCc4ccccc4)nn23)cc1 [3-(4-methoxyphenyl)-6-(phenylmethylsulfanyl)-[1,2,4]triazolo[4,3-b]pyridazine]
> 300 | c1ccc(CSc2nnc(-c3cccnc3)o2)cc1 [3-(5-Benzylsulfanyl-[1,3,4]oxadiazol-2-yl)-pyridine]
25.2 | O=C(CCS(=O)(=O)c1ccccc1)Nc1cccc2c1C(=O)NC2=O [3-(benzenesulfonyl)-N-(1,3-dioxoisoindol-4-yl)propanamide]

SMILES | EC50 [µM]
O=c1[nH]c2ccccc2c(=O)n1-c1ccc(Cl)cc1Cl [3-(2,4-dichlorophenyl)quinazoline-2,4(1H,3H)-dione] | > 300
